According to patent publication US12233060B2, “Inhibitors of Ataxia-Telangiectasia Mutated and Rad3-related protein kinase (ATR) for use in methods of treating cancer” (THE INSTITUTE OF CANCER RESEARCH: ROYAL CANCER HOSPITAL, priority 2016, dated 2025):

Columns and labels:
SYO1 cells = assay: DNA fibre analysis, replication fork speed in SYO1 cells; format: cell-based, human; conditions: 0.1 μM for two hours; p<0.0001
Experimental: FIG. 10. ATR inhibitors elicit replication fork stress in SS tumour cells. […] Error bars represent SEM from triplicate experiments. p values were derived from Student's t tests. B. Western blot illustrating PARP1 cleavage in SYO1 cells exposed to VX970 for 24 hours. C. Western blot illustrating H2AX phosphorylation (γH2AX) in SYO1 cells exposed to VX970 (0.1 μM). D. Confocal microspcopy images illustrating H2AX phosphorylation in SYO1 cells exposed to VX970 (0.1 μM, 24 hours). E. Bar chart depicting data from (D). Error bars represent SEM from 100 images. p values were derived from Student's t tests. F. Replication fork speeds in SYO1 cells exposed to 0.1 μM VX970 for two hours. p value was derived from a Student's t test. G. Replication fork speeds in HCT116 cells exposed to 0.1 μM VX970 for two hours in the presence and absence of ectopic expression of a SS18-SSX1 fusion protein. p values were derived from Student's t tests. Expression of SS18-SSX1 or exposure to VX970 reduced fork speed. Combined SS18-SSX1 expression and VX970 exposure enhanced the reduction in fork speed. H and I. FACS plots from SYO1 cells exposed to VX970.
ATRi induced cytotoxicity in tumour cells derived from carcinomas is often associated with an increase in replication fork stress.

[1] = tested on: SS tumour cell lines (HS-SY-II, ASKA, YAMOTO, CME1, SYO1); assay: Five-day cell viability (CellTiter-Glo) in synovial sarcoma tumour cell lines; format: cell-based, human
Source text: FIG. 8. ATR genetic dependency synovial sarcoma tumour cells—part 1. A. ATR siRNA Z scores from the siRNA screens described in FIG. 7, classified according to the cancer histology of tumour cell lines. B. Dose-response survival curves illustrating sensitivity of SS tumour cell lines to the ATR small molecule inhibitor (ATRi) VX970, compared to ATRi resistant HCT116 cells. Cells were exposed to drugs for five days and cell viability estimated using CellTiter-Glo. For each SS tumour cell line, dose response ANOVA p<0.0001 vs. HCT116. C. Dose-response survival curves illustrating sensitivity of SS tumour cell lines to VX970, compared to ATRi resistant ARID1A wild type HCT116 cells (HCT116 ARID1A^+/+) and ARID1A defective HCT116 cells (HCT116 ARID1A^−/−). Cells were exposed to drugs for five days and cell viability estimated using CellTiter-Glo. For each SS tumour cell line and HCT116 ARID1A^−/−, dose response ANOVA p<0.0001 vs. HCT116 ARID1A^+/+. D. VX970 area under the curve (AUC) values in tumour cell lines. ARID1A defective cells indicated as “ARID1A^−/−”, Ewings sarcoma tumour cell lines shown as “EWS”. E. Anti-tumour response in mice bearing established synovial sarcoma PDX, SA13412, to treatment with VX970. Median tumour volumes after the initiation of VX970 treatment are shown. Error bars represent standard error of the mean (SEM). F. Kaplan-Meier survival plot of data from (E). log rank Mantel p=0.026. G. Western blot illustrating expression of synovial sarcoma fusion proteins in HCT116 cells. A SS18-SSX1 variant with the final eight residues of SSX1 deleted (Δ71-78) is shown as d71-78. H. Bar chart illustrating induction of AXIN2 mRNA after expression of synovial sarcoma fusion proteins in HCT116 cells. I-K. Dose-response survival curves illustrating that expression of synovial sarcoma fusion proteins in HCT116 cells causes ATRi sensitivity.
FIG. 9. ATR genetic dependency synovial sarcoma tumour cells—part 2. […] Cells were transfected with ATR siRNAs and cell viability estimated five days later by the use of Cell Titre Glo. Bar chart showing surviving fractions are shown left and middle. Western blot illustrating ATR protein silencing is shown right. Z scores from the siRNA screens described in FIG. 7, classified according to the cancer histology of tumour cell lines. B. Dose-response survival curves illustrating sensitivity of SS tumour cell lines to the ATR small molecule inhibitor (ATRi) VX970, compared to ATRi resistant HCT116 cells and non-tumour cells (HFF1, MCF10A). […]
Having confirmed the sensitivity of SS tumour cell lines to siRNA in validation experiments (FIG. 9A), we assessed the sensitivity of the five SS tumour cell lines to the clinical ATR inhibitor (ATRi), VX970 (Vertex Pharmaceuticals). […]

Structure (SMILES): CNCc1ccc(-c2cc(-c3nc(-c4ccc(S(=O)(=O)C(C)C)cc4)cnc3N)on2)cc1 [VX-970, 5-[4-(Isopropylsulfonyl)phenyl]-3-(3-{4-[(methylamino)methyl]phenyl}-1,2-oxazol-5-yl)-2-pyrazinamine]
- replication fork speed (SYO1 cells): significant reduction in replication fork speed
- sensitivity of SS tumour cell lines vs Ewing's sarcoma and ARID1A defective tumour cells ([1]; AUC and SF50 comparison): VX970 sensitivity comparable
- IC50 ([1]; Homo sapiens, 120 h, each of five SS tumour cell lines, five days exposure, read-out: SF50 (concentration required to cause 50% reduction in cell survival)): ~100 nM
- sensitivity of SS tumour cell lines vs ARID1A defective HCT116 cells ([1]; five days): as sensitive to VX970 as HCT116 cells
- sensitivity of SS tumour cell lines vs ATRi resistant HCT116 cells ([1]; five days, ANOVA p<0.0001): profoundly sensitive to VX970
